Test results as given in the NIST ThermoML archive (doi:10.1016/j.fluid.2017.06.022).
“And” between values parts separate entries of the source, which are not always exact repeats. Equal values may be shown once.

Experiment: xn = mol fraction of the nth substance listed
Conditions: Liquid, Bellows volumetry

C=C [ethene] + Cc1ccccc1
Conditions	mass density
325.3 K, 3200 kPa, x1 = 0.3067	729.1 kg/m3
325.3 K, 3400 kPa, x1 = 0.3067	730.3 kg/m3
325.3 K, 4100 kPa, x1 = 0.3067	731.4 kg/m3 and 730.8 kg/m3
325.3 K, 5500 kPa, x1 = 0.3067	733.1 kg/m3
325.3 K, 6900 kPa, x1 = 0.3067	734.9 kg/m3
325.3 K, 8500 kPa, x1 = 0.3067	737.2 kg/m3
325.3 K, 10200 kPa, x1 = 0.3067	738.9 kg/m3
325.3 K, 11600 kPa, x1 = 0.3067	740.7 kg/m3
325.3 K, 13400 kPa, x1 = 0.3067	743.1 kg/m3
326.2 K, 1270 kPa, x1 = 0.1194	779.8 kg/m3
326.2 K, 1340 kPa, x1 = 0.1194	781 kg/m3
326.2 K, 2020 kPa, x1 = 0.1194	781.6 kg/m3
326.2 K, 2570 kPa, x1 = 0.1194	782.2 kg/m3
326.2 K, 3390 kPa, x1 = 0.1194	783.5 kg/m3
326.2 K, 4760 kPa, x1 = 0.1194	784.7 kg/m3
326.2 K, 5790 kPa, x1 = 0.1194	785.4 kg/m3
326.2 K, 7090 kPa, x1 = 0.1194	787.2 kg/m3
326.2 K, 10310 kPa, x1 = 0.1194	790.4 kg/m3
326.2 K, 13590 kPa, x1 = 0.1194	793.6 kg/m3
348.7 K, 1490 kPa, x1 = 0.1194	759.4 kg/m3
348.7 K, 1560 kPa, x1 = 0.1194	759.4 kg/m3
348.7 K, 1970 kPa, x1 = 0.1194	760 kg/m3
348.7 K, 2380 kPa, x1 = 0.1194	760.5 kg/m3
348.7 K, 2860 kPa, x1 = 0.1194	761.7 kg/m3
348.7 K, 3400 kPa, x1 = 0.1194	762.3 kg/m3
348.7 K, 4090 kPa, x1 = 0.1194	763.5 kg/m3
348.7 K, 5150 kPa, x1 = 0.1194	764.7 kg/m3
348.7 K, 6420 kPa, x1 = 0.1194	765.8 kg/m3
348.7 K, 10040 kPa, x1 = 0.1194	770 kg/m3
348.7 K, 13810 kPa, x1 = 0.1194	774.9 kg/m3
348.7 K, 16900 kPa, x1 = 0.1194	777.9 kg/m3
348.7 K, 21130 kPa, x1 = 0.1194	782.2 kg/m3
348.7 K, 23670 kPa, x1 = 0.1194	785.4 kg/m3
348.7 K, 27850 kPa, x1 = 0.1194	789.1 kg/m3
348.7 K, 30800 kPa, x1 = 0.1194	792.3 kg/m3
348.7 K, 32790 kPa, x1 = 0.1194	793.6 kg/m3
351.6 K, 4100 kPa, x1 = 0.3067	706.4 kg/m3
351.6 K, 4800 kPa, x1 = 0.3067	707.5 kg/m3
351.6 K, 5500 kPa, x1 = 0.3067	708.6 kg/m3
351.6 K, 5600 kPa, x1 = 0.3067	708.6 kg/m3
351.6 K, 6200 kPa, x1 = 0.3067	709.7 kg/m3
351.6 K, 6900 kPa, x1 = 0.3067	710.7 kg/m3
351.6 K, 8600 kPa, x1 = 0.3067	713.5 kg/m3
351.6 K, 10400 kPa, x1 = 0.3067	716.2 kg/m3
351.6 K, 13700 kPa, x1 = 0.3067	721.2 kg/m3
351.6 K, 17000 kPa, x1 = 0.3067	725.7 kg/m3
351.6 K, 20300 kPa, x1 = 0.3067	730.3 kg/m3
351.6 K, 20700 kPa, x1 = 0.3067	730.8 kg/m3
351.6 K, 27400 kPa, x1 = 0.3067	738.9 kg/m3
351.6 K, 30700 kPa, x1 = 0.3067	742.5 kg/m3
373.8 K, 4800 kPa, x1 = 0.3067	677.2 kg/m3
373.8 K, 4900 kPa, x1 = 0.3067	678.1 kg/m3
373.8 K, 5500 kPa, x1 = 0.3067	679.6 kg/m3
373.8 K, 6200 kPa, x1 = 0.3067	680.6 kg/m3
373.8 K, 6900 kPa, x1 = 0.3067	682.1 kg/m3
373.8 K, 8600 kPa, x1 = 0.3067	685.1 kg/m3
373.8 K, 10300 kPa, x1 = 0.3067	688.2 kg/m3
373.8 K, 16700 kPa, x1 = 0.3067	698.5 kg/m3
373.8 K, 17400 kPa, x1 = 0.3067	699.5 kg/m3
373.8 K, 24000 kPa, x1 = 0.3067	709.1 kg/m3
373.8 K, 30800 kPa, x1 = 0.3067	718.4 kg/m3
373.8 K, 36900 kPa, x1 = 0.3067	725.7 kg/m3
373.8 K, 37700 kPa, x1 = 0.3067	726.8 kg/m3
373.8 K, 44200 kPa, x1 = 0.3067	734.3 kg/m3
373.8 K, 51200 kPa, x1 = 0.3067	741.9 kg/m3
375.1 K, 1860 kPa, x1 = 0.1194	732.3 kg/m3
375.1 K, 2200 kPa, x1 = 0.1194	733.4 kg/m3
375.1 K, 2880 kPa, x1 = 0.1194	734.5 kg/m3
375.1 K, 3430 kPa, x1 = 0.1194	735 kg/m3
375.1 K, 4460 kPa, x1 = 0.1194	736.7 kg/m3
375.1 K, 5830 kPa, x1 = 0.1194	738.3 kg/m3
375.1 K, 6720 kPa, x1 = 0.1194	740 kg/m3
375.1 K, 7330 kPa, x1 = 0.1194	740.6 kg/m3
375.1 K, 10280 kPa, x1 = 0.1194	745 kg/m3
375.1 K, 13770 kPa, x1 = 0.1194	749.6 kg/m3
375.1 K, 16990 kPa, x1 = 0.1194	753.6 kg/m3
375.1 K, 20680 kPa, x1 = 0.1194	758.2 kg/m3
375.1 K, 23900 kPa, x1 = 0.1194	761.7 kg/m3
375.1 K, 27390 kPa, x1 = 0.1194	766.4 kg/m3
375.1 K, 30540 kPa, x1 = 0.1194	769.4 kg/m3
375.1 K, 34240 kPa, x1 = 0.1194	773.7 kg/m3
375.1 K, 37600 kPa, x1 = 0.1194	777.3 kg/m3
375.1 K, 41300 kPa, x1 = 0.1194	781 kg/m3
375.1 K, 44240 kPa, x1 = 0.1194	783.5 kg/m3
375.1 K, 47940 kPa, x1 = 0.1194	787.2 kg/m3
421 K, 6400 kPa, x1 = 0.3067	620.7 kg/m3
421 K, 6900 kPa, x1 = 0.3067	622.8 kg/m3
421 K, 8600 kPa, x1 = 0.3067	628.3 kg/m3
421 K, 10500 kPa, x1 = 0.3067	633.8 kg/m3
421 K, 12400 kPa, x1 = 0.3067	638.2 kg/m3
421 K, 13800 kPa, x1 = 0.3067	643 kg/m3
421 K, 17300 kPa, x1 = 0.3067	652 kg/m3
421 K, 20700 kPa, x1 = 0.3067	659.9 kg/m3
421 K, 24300 kPa, x1 = 0.3067	667 kg/m3
421 K, 30700 kPa, x1 = 0.3067	678.1 kg/m3
